Test results: paper PMC12028158, “Synthesis and In Vitro Evaluation of the Anticancer Effect of Novel Phosphonium Vindoline Derivatives” (International Journal of Molecular Sciences, 2025)
Read-outs that look alike come from different tables or passages of the source.

Columns and labels:
Format in all cases: cell-based
[1] = system: SK-MEL-28; experiment: NCI60 one-dose screen; conditions: Homo sapiens; SK-MEL-28, 10 μM, one-dose; read-out: Growth percent
[2] = system: K-562; experiment: NCI60 five-dose screen; conditions: Homo sapiens, K562; K-562, Leukemia, five-dose; read-out: GI50
[3] = system: HS 578T; experiment: NCI60 five-dose screen; conditions: Homo sapiens; HS 578T, Breast Cancer, five-dose; read-out: GI50
[4] = system: HL-60(TB); experiment: NCI60 five-dose screen; conditions: Homo sapiens, read-out: GI50
[5] = system: CAKI-1; experiment: NCI60 one-dose screen; conditions: Homo sapiens; CAKI-1, 10 μM, one-dose; read-out: Growth percent
[6] = system: HT29; experiment: NCI60 one-dose screen; conditions: Homo sapiens, HT-29; HT29, 10 μM, one-dose; read-out: Growth percent
[7] = system: HCT-15; experiment: NCI60 five-dose screen; conditions: Homo sapiens; HCT-15, Colon Cancer, five-dose; read-out: GI50
[8] = system: HL-60(TB); experiment: NCI60 one-dose screen; conditions: Homo sapiens; HL-60(TB), 10 μM, one-dose; read-out: Growth percent
[9] = system: HCT-15; experiment: NCI60 one-dose screen; conditions: Homo sapiens; HCT-15, 10 μM, one-dose; read-out: Growth percent
[10] = system: RPMI-8226; experiment: NCI60 five-dose screen; conditions: Homo sapiens; RPMI-8226, Leukemia, five-dose; read-out: GI50
[11] = system: RXF 393; experiment: NCI60 one-dose screen; conditions: Homo sapiens; RXF 393, 10 μM, one-dose; read-out: Growth percent
[12] = system: SNB-19; experiment: NCI60 one-dose screen; conditions: Homo sapiens; SNB-19, 10 μM, one-dose; read-out: Growth percent
[13] = system: HOP-62; experiment: NCI60 one-dose screen; conditions: Homo sapiens; HOP-62, 10 μM, one-dose; read-out: Growth percent
[14] = system: Renal Cancer panel; experiment: NCI60 five-dose screen, panel mean; conditions: Homo sapiens; mean over Renal Cancer panel; read-out: Mean GI50
[15] = system: NCI-H322M; experiment: NCI60 one-dose screen; conditions: Homo sapiens, 10 μM, one-dose, read-out: Growth percent
[16] = system: NCI/ADR-RES; experiment: NCI60 five-dose screen; conditions: Homo sapiens, Ovarian Cancer, five-dose, read-out: GI50
[17] = system: NCI-H322M; experiment: NCI60 five-dose screen; conditions: Homo sapiens, Non-small Cell Lung Cancer, five-dose, read-out: GI50
[18] = system: Breast Cancer panel; experiment: NCI60 five-dose screen, panel mean; conditions: Homo sapiens; mean over Breast Cancer panel; read-out: Mean GI50
[19] = system: CCRF-CEM; experiment: NCI60 one-dose screen; conditions: Homo sapiens, 10 μM, one-dose, read-out: Growth percent
[20] = system: MALME-3M; experiment: NCI60 five-dose screen; conditions: Homo sapiens; MALME-3M, Melanoma, five-dose; read-out: GI50
[21] = system: NCI-H23; experiment: NCI60 one-dose screen; conditions: Homo sapiens; NCI-H23, 10 μM, one-dose; read-out: Growth percent
[22] = system: BT-549; experiment: NCI60 five-dose screen; conditions: Homo sapiens; BT-549, Breast Cancer, five-dose; read-out: GI50
[23] = system: CNS Cancer panel; experiment: NCI60 five-dose screen, panel mean; conditions: Homo sapiens; mean over CNS Cancer panel; read-out: Mean GI50
[24] = system: SK-MEL-2; experiment: NCI60 one-dose screen; conditions: Homo sapiens; SK-MEL-2, 10 μM, one-dose; read-out: Growth percent
[25] = system: OVCAR-3; experiment: NCI60 one-dose screen; conditions: Homo sapiens; OVCAR-3, 10 μM, one-dose; read-out: Growth percent
[26] = system: A549/ATCC; experiment: NCI60 one-dose screen; conditions: Homo sapiens; A549/ATCC, 10 μM, one-dose; read-out: Growth percent
[27] = system: SK-OV-3; experiment: NCI60 five-dose screen; conditions: Homo sapiens; SK-OV-3, Ovarian Cancer, five-dose; read-out: GI50
[28] = system: Leukemia panel; experiment: NCI60 five-dose screen, panel mean; conditions: Homo sapiens; mean over Leukemia panel; read-out: Mean GI50
[29] = system: UACC-62; experiment: NCI60 one-dose screen; conditions: Homo sapiens; UACC-62, 10 μM, one-dose; read-out: Growth percent
[30] = system: SK-MEL-28; experiment: NCI60 five-dose screen; conditions: Homo sapiens; SK-MEL-28, Melanoma, five-dose; read-out: GI50
[31] = system: NCI-H226; experiment: NCI60 one-dose screen; conditions: Homo sapiens; NCI-H226, 10 μM, one-dose; read-out: Growth percent
[32] = system: BT-549; experiment: NCI60 one-dose screen; conditions: Homo sapiens; BT-549, 10 μM, one-dose; read-out: Growth percent
[33] = system: Ovarian Cancer panel; experiment: NCI60 five-dose screen, panel mean; conditions: Homo sapiens; mean over Ovarian Cancer panel; read-out: Mean GI50
[34] = system: SF-539; experiment: NCI60 five-dose screen; conditions: Homo sapiens; SF-539, CNS Cancer, five-dose; read-out: GI50
[35] = system: SNB-75; experiment: NCI60 one-dose screen; conditions: Homo sapiens; SNB-75, 10 μM, one-dose; read-out: Growth percent
[36] = system: MALME-3M; experiment: NCI60 one-dose screen; conditions: Homo sapiens; MALME-3M, 10 μM, one-dose; read-out: Growth percent
[37] = system: OVCAR-4; experiment: NCI60 one-dose screen; conditions: Homo sapiens; OVCAR-4, 10 μM, one-dose; read-out: Growth percent
[38] = system: LOX IMVI; experiment: NCI60 one-dose screen; conditions: Homo sapiens, 10 μM, one-dose, read-out: Growth percent
[39] = system: OVCAR-8; experiment: NCI60 one-dose screen; conditions: Homo sapiens; OVCAR-8, 10 μM, one-dose; read-out: Growth percent
[40] = system: OVCAR-3; experiment: NCI60 five-dose screen; conditions: Homo sapiens; OVCAR-3, Ovarian Cancer, five-dose; read-out: GI50
[41] = system: HCT-116; experiment: NCI60 one-dose screen; conditions: Homo sapiens; HCT-116, 10 μM, one-dose; read-out: Growth percent
[42] = system: HCC-2998; experiment: NCI60 five-dose screen; conditions: Homo sapiens; HCC-2998, Colon Cancer, five-dose; read-out: GI50
[43] = system: SF-268; experiment: NCI60 five-dose screen; conditions: Homo sapiens; SF-268, CNS Cancer, five-dose; read-out: GI50
[44] = system: COLO 205; experiment: NCI60 five-dose screen; conditions: Homo sapiens, read-out: GI50

Structure (SMILES): CC[C@]12C=CCN3CC[C@@]4(c5ccc(OC)cc5N(C)[C@H]4[C@@](O)(C(=O)OC)[C@@H]1OC(=O)CCC[P+](c1cc(C)c(OC)c(C)c1)(c1cc(C)c(OC)c(C)c1)c1cc(C)c(OC)c(C)c1)[C@@H]32 [9e]
- activity at 10 µM [1]: -98.2%
- GI50 [2]: 195 nM
- GI50 [3]: 185 nM
- GI50 ([4]; HL-60, HL-60(TB), Leukemia, five-dose): 39 nM
- GI50 ([4]; HL-60, leukemia HL-60(TB)): < 100 nM
- activity at 10 µM [5]: -97%
- activity at 10 µM [6]: -97.5%
- GI50 [7]: 760 nM
- activity at 10 µM [8]: -97.2%
- activity at 10 µM [9]: -93.9%
- GI50 [10]: 20 nM
- activity at 10 µM [11]: -98.6%
- activity at 10 µM [12]: -97.1%
- activity at 10 µM [13]: -97.9%
- GI50 [14]: 440 nM
- activity at 10 µM [15]: -98.1%
- GI50 [16]: 5110 nM
- GI50 [17]: 342 nM
- GI50 [18]: 140 nM
- activity at 10 µM [19]: -95.7%
- GI50 [20]: 288 nM
- activity at 10 µM [21]: -98.1%
- GI50 [22]: 170 nM
- GI50 [23]: 180 nM
- activity at 10 µM [24]: -98.2%
- activity at 10 µM [25]: -99%
- activity at 10 µM [26]: -92.9%
- GI50 [27]: 232 nM
- GI50 [28]: 110 nM
- activity at 10 µM [29]: -97.7%
- GI50 [30]: 272 nM
- activity at 10 µM [31]: -99.3%
- activity at 10 µM [32]: -98%
- GI50 [33]: 940 nM
- GI50 [34]: 307 nM
- activity at 10 µM [35]: -98.9%
- activity at 10 µM [36]: -98.4%
- activity at 10 µM [37]: -98.7%
- activity at 10 µM [38]: -96.8%
- activity at 10 µM [39]: -95.5%
- GI50 [40]: 147 nM
- activity at 10 µM [41]: -93%
- GI50 [42]: 195 nM
- GI50 [43]: 231 nM
- GI50 ([44]; COLO 205, COLO 205, Colon Cancer, five-dose): 91 nM
- GI50 ([44]; COLO 205, colon cancer COLO-205, text): < 100 nM
